Columns and labels:
Experiment in all cases: relative viability (nuclei count vs DMSO), 5 days (fraction); higher = more cells survive
[1] = test system: 201T
Method in brief: (§1)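 For relative viability, nuclei counts in treated wells were divided by those in vehicle wells. Lung cancer cell lines had been pin-tool dosed in 1536-well plates the day after seeding and cultured for 5 days, then fixed and stained in one step (final 0.05% Triton X-100, 1% formaldehyde, 1 ug/ml Hoechst) and imaged at 4×. Doses were one drug alone or a fixed anchor-drug dose plus five library-drug doses (not always all listed) in √10 steps, and values are duplicate-plate medians.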

[2] = test system: A-427
Method in brief: as §1

[3] = test system: COR-L23
Method in brief: as §1

[4] = test system: H3255
Method in brief: as §1

[5] = test system: HCC-44
Method in brief: as §1

[6] = test system: LC-2-ad
Method in brief: as §1

[7] = test system: LCLC-103H
Method in brief: as §1

[8] = test system: LCLC-97TM1
Method in brief: as §1

[9] = test system: LK-2
Method in brief: as §1

[10] = test system: LU99A
Method in brief: as §1

[11] = test system: NCI-H1563
Method in brief: as §1

[12] = test system: NCI-H1650
Method in brief: as §1

[13] = test system: NCI-H1793
Method in brief: as §1

[14] = test system: NCI-H2228
Method in brief: as §1

[15] = test system: NCI-H2347
Method in brief: as §1

[16] = test system: NCI-H23
Method in brief: as §1

[17] = test system: NCI-H460
Method in brief: as §1

[18] = test system: NCI-H596
Method in brief: as §1

[19] = test system: PC-14
Method in brief: as §1

[20] = test system: SW 1573
Method in brief: as §1

[21] = test system: SW 900
Method in brief: as §1

## Nc1ccn([C@@H]2O[C@H](CO)[C@@H](O)[C@@H]2O)c(=O)n1 [Cytarabine] + Nc1nc2[nH]cc(CCc3ccc(C(=O)N[C@@H](CCC(=O)O)C(=O)O)cc3)c2c(=O)[nH]1 [Pemetrexed] (partner 0.2 µM)
[1]; first compound 0.005 µM
  relative viability: 0.361
[1]; first compound 0.01581 µM
  relative viability: 0.353
[1]; first compound 0.05 µM
  relative viability: 0.309
[1]; first compound 0.1581 µM
  relative viability: 0.325
[1]; first compound 0.5 µM
  relative viability: 0.25
[2]; first compound 0.005 µM
  relative viability: 0.745
[2]; first compound 0.01581 µM
  relative viability: 0.509
[2]; first compound 0.05 µM
  relative viability: 0.332
[2]; first compound 0.1581 µM
  relative viability: 0.27
[2]; first compound 0.5 µM
  relative viability: 0.253
[3]; first compound 0.005 µM
  relative viability: 0.196
[3]; first compound 0.01581 µM
  relative viability: 0.204
[3]; first compound 0.05 µM
  relative viability: 0.206
[3]; first compound 0.1581 µM
  relative viability: 0.16
[3]; first compound 0.5 µM
  relative viability: 0.158
[4]; first compound 0.005 µM
  relative viability: 0.625
[4]; first compound 0.01581 µM
  relative viability: 0.565
[4]; first compound 0.05 µM
  relative viability: 0.506
[4]; first compound 0.1581 µM
  relative viability: 0.526
[4]; first compound 0.5 µM
  relative viability: 0.432
[5]; first compound 0.005 µM
  relative viability: 0.717
[5]; first compound 0.01581 µM
  relative viability: 0.629
[5]; first compound 0.05 µM
  relative viability: 0.67
[5]; first compound 0.1581 µM
  relative viability: 0.751
[5]; first compound 0.5 µM
  relative viability: 0.774
[6]; first compound 0.005 µM
  relative viability: 0.28
[6]; first compound 0.01581 µM
  relative viability: 0.31
[6]; first compound 0.05 µM
  relative viability: 0.286
[6]; first compound 0.1581 µM
  relative viability: 0.268
[6]; first compound 0.5 µM
  relative viability: 0.265
[7]; first compound 0.005 µM
  relative viability: 0.458
[7]; first compound 0.01581 µM
  relative viability: 0.467
[7]; first compound 0.05 µM
  relative viability: 0.497
[7]; first compound 0.1581 µM
  relative viability: 0.422
[7]; first compound 0.5 µM
  relative viability: 0.456
[8]; first compound 0.005 µM
  relative viability: 0.209
[8]; first compound 0.01581 µM
  relative viability: 0.179
[8]; first compound 0.05 µM
  relative viability: 0.0983
[8]; first compound 0.1581 µM
  relative viability: 0.108
[8]; first compound 0.5 µM
  relative viability: 0.0633
[9]; first compound 0.005 µM
  relative viability: 0.34
[9]; first compound 0.01581 µM
  relative viability: 0.233
[9]; first compound 0.05 µM
  relative viability: 0.11
[9]; first compound 0.1581 µM
  relative viability: 0.091
[9]; first compound 0.5 µM
  relative viability: 0.0936
[10]; first compound 0.005 µM
  relative viability: 0.22
[10]; first compound 0.01581 µM
  relative viability: 0.179
[10]; first compound 0.05 µM
  relative viability: 0.177
[10]; first compound 0.1581 µM
  relative viability: 0.195
[10]; first compound 0.5 µM
  relative viability: 0.163
[11]; first compound 0.005 µM
  relative viability: 0.823
[11]; first compound 0.01581 µM
  relative viability: 0.727
[11]; first compound 0.05 µM
  relative viability: 0.637
[11]; first compound 0.1581 µM
  relative viability: 0.505
[11]; first compound 0.5 µM
  relative viability: 0.44
[12]; first compound 0.005 µM
  relative viability: 0.367
[12]; first compound 0.01581 µM
  relative viability: 0.353
[12]; first compound 0.05 µM
  relative viability: 0.262
[12]; first compound 0.1581 µM
  relative viability: 0.199
[12]; first compound 0.5 µM
  relative viability: 0.158
[13]; first compound 0.005 µM
  relative viability: 0.902
[13]; first compound 0.01581 µM
  relative viability: 0.827
[13]; first compound 0.05 µM
  relative viability: 0.827
[13]; first compound 0.1581 µM
  relative viability: 0.374
[13]; first compound 0.5 µM
  relative viability: 0.206
[14]; first compound 0.005 µM
  relative viability: 0.32
[14]; first compound 0.01581 µM
  relative viability: 0.275
[14]; first compound 0.05 µM
  relative viability: 0.134
[14]; first compound 0.1581 µM
  relative viability: 0.0993
[14]; first compound 0.5 µM
  relative viability: 0.133
[15]; first compound 0.005 µM
  relative viability: 0.392
[15]; first compound 0.01581 µM
  relative viability: 0.522
[15]; first compound 0.05 µM
  relative viability: 0.439
[15]; first compound 0.1581 µM
  relative viability: 0.44
[15]; first compound 0.5 µM
  relative viability: 0.391
[16]; first compound 0.005 µM
  relative viability: 0.611
[16]; first compound 0.01581 µM
  relative viability: 0.527
[16]; first compound 0.05 µM
  relative viability: 0.445
[16]; first compound 0.1581 µM
  relative viability: 0.172
[16]; first compound 0.5 µM
  relative viability: 0.159
[17]; first compound 0.005 µM
  relative viability: 0.0718
[17]; first compound 0.01581 µM
  relative viability: 0.0671
[17]; first compound 0.05 µM
  relative viability: 0.0853
[17]; first compound 0.1581 µM
  relative viability: 0.0459
[17]; first compound 0.5 µM
  relative viability: 0.037
[18]; first compound 0.005 µM
  relative viability: 0.41
[18]; first compound 0.01581 µM
  relative viability: 0.485
[18]; first compound 0.05 µM
  relative viability: 0.472
[18]; first compound 0.1581 µM
  relative viability: 0.379
[18]; first compound 0.5 µM
  relative viability: 0.349
[19]; first compound 0.005 µM
  relative viability: 0.183
[19]; first compound 0.01581 µM
  relative viability: 0.156
[19]; first compound 0.05 µM
  relative viability: 0.187
[19]; first compound 0.1581 µM
  relative viability: 0.0581
[19]; first compound 0.5 µM
  relative viability: 0.0565
[20]; first compound 0.005 µM
  relative viability: 0.675
[20]; first compound 0.01581 µM
  relative viability: 0.576
[20]; first compound 0.05 µM
  relative viability: 0.386
[20]; first compound 0.1581 µM
  relative viability: 0.107
[20]; first compound 0.5 µM
  relative viability: 0.0809
[21]; first compound 0.005 µM
  relative viability: 0.432
[21]; first compound 0.01581 µM
  relative viability: 0.499
[21]; first compound 0.05 µM
  relative viability: 0.441
[21]; first compound 0.1581 µM
  relative viability: 0.179
[21]; first compound 0.5 µM
  relative viability: 0.143
